Columns and labels:
[1] = tested on: female Wistar rat; test: Animal test in vivo: average food consumption (appetite inhibition); settings: crude extract 300 mg/kg; for Average food consumptions: Table 1, positive control 15 mg/kg, others 50 mg/kg; for average food consumptions compared with the blank control group (in words): during the administration of the drugs, pure glycosides 50 mg/kg
Procedure: (§1) 6-7 weeks-old female Wistar rat (purchased from Shanghai Laboratory Animal Center of Chinese Academy of Sciences)(weight: 110-150 g) was raised alone in suspended metal cage. After the experimental rat was obtained, it was checked to make sure whether they were abnormal or had obvious disease signs. The rat can freely obtain the drinking-water and feed for rodent (RM1(E)AQC). The feeding cage was controlled to receive 12 h illumination (from 07:00 to 19:00) and to be in a dark environment for 12 h, and the room temperature and relative humidity were controlled to be 21±3° C. and 55±15% respectively and not to deviate the upper and lower limit. The rats were randomly divided into groups depending on the body weight according to random number table to make the average weight in each group are approximately equal. Before the test, the rats were pre-trained suitably for one week (from −7th day to −1st day) during which the consumptions of feed and drinking water were recorded.
(§2) Each group of drug to be tested, positive control group, and blank control group consisted of 5 rats, respectively. The tested drug and positive control drug were mixed with wheaten starch before the administration and formulated to suspension with required doses according to 10 mL/kg of administration volume. The positive control drug was sibutramine hydrochloride and the administration dosage was 15 mg/kg body weight. In the blank control group, only equal amount of starch was used to formulate suspension for administration by […] in a same volume. The administration time is the 1st day, 2nd day and 3rd day. The body weight of the rat, the consumption of the feed (the weight of the feeding hopper) and consumption of the drinking water (bottle weight) were recorded from the −7th day to the 7th day.

[2] = Animal test in vivo: average body weight; parameters: species or system rat; settings: crude extract 300 mg/kg; for Average body weight: Table 3, positive control 15 mg/kg, others 50 mg/kg; for body weight compared with the blank control group (in words): during the administration of the drugs, pure glycosides 50 mg/kg
Procedure: as §1, §2

[3] = 4th day (after administration on days 1-3)
[4] = 5th day (after administration on days 1-3)
[5] = 6th day (after administration on days 1-3)
[6] = 7th day (after administration on days 1-3)
[7] = −1st day (before administration)
[8] = −2nd day (before administration)
[9] = −3rd day (before administration)
[10] = −4th day (before administration)
[11] = −5th day (before administration)
[12] = −6th day (before administration)
[13] = −7th day (before administration)

Structure (SMILES)	Average food consumptions ([1]; 1st day (administration day)) [g]	Average food consumptions ([1]; 2nd day (administration day)) [g]	Average food consumptions ([1]; 3rd day (administration day)) [g]	Average food consumptions [1, 3] [g]	Average food consumptions [1, 4] [g]	Average food consumptions [1, 5] [g]	Average food consumptions [1, 6] [g]	average food consumptions compared with the blank control group (in words) [1]	Average food consumptions [1, 7] [g]	Average food consumptions [1, 8] [g]	Average food consumptions [1, 9] [g]	Average food consumptions [1, 10] [g]	Average food consumptions [1, 11] [g]	Average food consumptions [1, 12] [g]	Average food consumptions [1, 13] [g]	Average body weight ([2]; 1st day (administration day)) [g]	Average body weight ([2]; 2nd day (administration day)) [g]	Average body weight ([2]; 3rd day (administration day)) [g]	Average body weight [2, 3] [g]	Average body weight [2, 4] [g]	further results
CO[C@H]1C[C@H](O[C@H]2[C@@H](OC)C[C@H](O[C@H]3CC[C@@]4(C)C(=CC[C@]5(O)[C@@H]4C[C@@H](OC(=O)/C=C/c4ccccc4)[C@@]4(C)[C@]5(O)CC[C@@]4(O)C(C)=O)C3)O[C@@H]2C)O[C@@H](C)[C@H]1O[C@H]1C[C@H](OC)[C@H](O[C@H]2C[C@@H](OC)[C@@H](O[C@@H]3O[C@H](CO)[C@@H](O)[C@H](O)[C@H]3O)[C@H](C)O2)[C@@H](C)O1 [Cynauricuoside A, cynauricuoside A]	9.2	10.8	9.2	15.2	13.6	13.2	13.6	greatly less than those in the blank control group	12.4	14.4	13.6	14	13.6	11.2	14	158.8	156.4	153.6	156.8	158.4	Average body weight [2, 5]: 164.4 g; Average body weight [2, 6]: 166.8 g; body weight compared with the blank control group (in words) [2]: the tendency of body weight change was greatly different; Average body weight [2, 7]: 163.6 g; Average body weight [2, 8]: 160.4 g; Average body weight [2, 9]: 158 g; Average body weight [2, 10]: 156 g; Average body weight [2, 11]: 154.4 g; Average body weight [2, 12]: 152.8 g; Average body weight [2, 13]: 150 g
CO[C@H]1C[C@H](O[C@H]2[C@@H](OC)C[C@H](O[C@H]3CC[C@@]4(C)C(=CC[C@]5(O)[C@@H]4C[C@@H](OC(=O)/C=C(\C)C(C)C)[C@@]4(C)[C@]5(O)CC[C@@]4(O)C(C)=O)C3)O[C@@H]2C)O[C@@H](C)[C@H]1O[C@H]1C[C@H](OC)[C@H](O[C@H]2C[C@@H](OC)[C@@H](O[C@@H]3O[C@H](CO)[C@@H](O)[C@H](O)[C@H]3O)[C@H](C)O2)[C@@H](C)O1 [Wilfoside C1G, wilfoside C1G]	14.4	12.4	14.4	14.8	17.6	12.4	15.2	no great differences	14	13.6	14.8	15.2	13.6	13.6	13.6	163.6	163.2	165.2	166.4	170.4	Average body weight [2, 5]: 169.6 g; Average body weight [2, 6]: 174.4 g; body weight compared with the blank control group (in words) [2]: no great differences; Average body weight [2, 7]: 162.8 g; Average body weight [2, 8]: 157.6 g; Average body weight [2, 9]: 155.6 g; Average body weight [2, 10]: 153.2 g; Average body weight [2, 11]: 151.2 g; Average body weight [2, 12]: 147.6 g; Average body weight [2, 13]: 145.6 g
